Test results as given in PubChem BioAssay (NCI).
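1) Cells in 96-well plates. 2) Compound, 48 h, 5 concentrations. 3) Linear interpolation between surrounding doses. 4) Unreached endpoint = highest concentration. TGI denotes the concentration required for complete inhibition of growth.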

Columns and labels:
Assay in all cases: growth of human tumour cells (NCI), 48 h
SK-MEL-28 melanoma = system: SK-MEL-28 melanoma
HOP-92 NSCLC = system: HOP-92 NSCLC
SW-620 colon = system: SW-620 colon
A549 NSCLC = system: A549 NSCLC
SNB-75 CNS = system: SNB-75 CNS
OVCAR-5 ovarian = system: OVCAR-5 ovarian
OVCAR-3 ovarian = system: OVCAR-3 ovarian
MDA-N = system: MDA-N
U251 CNS = system: U251 CNS
MDA-MB-435 = system: MDA-MB-435
SF-539 CNS = system: SF-539 CNS
OVCAR-4 ovarian = system: OVCAR-4 ovarian
IGROV1 ovarian = system: IGROV1 ovarian
CCRF-CEM leukemia = system: CCRF-CEM leukemia
UO-31 renal = system: UO-31 renal
ACHN renal = system: ACHN renal
HT29 colon = system: HT29 colon
UACC-257 melanoma = system: UACC-257 melanoma
DU-145 prostate = system: DU-145 prostate
MOLT-4 leukemia = system: MOLT-4 leukemia
SR leukemia = system: SR leukemia
SN12C renal = system: SN12C renal
HS 578T breast = system: HS 578T breast
M14 melanoma = system: M14 melanoma
HCT-15 colon = system: HCT-15 colon
LOX IMVI melanoma = system: LOX IMVI melanoma
MDA-MB-231 breast = system: MDA-MB-231 breast
RXF 393 renal = system: RXF 393 renal
KM12 colon = system: KM12 colon
SK-MEL-2 melanoma = system: SK-MEL-2 melanoma
MALME-3M melanoma = system: MALME-3M melanoma
SK-MEL-5 melanoma = system: SK-MEL-5 melanoma
CAKI-1 renal = system: CAKI-1 renal
SK-OV-3 ovarian = system: SK-OV-3 ovarian
TK-10 renal = system: TK-10 renal
UACC-62 melanoma = system: UACC-62 melanoma
NCI/ADR-RES ovarian = system: NCI/ADR-RES ovarian
SF-295 CNS = system: SF-295 CNS
NCI-H522 lung = system: NCI-H522 lung
RPMI-8226 leukemia = system: RPMI-8226 leukemia
A498 renal = system: A498 renal
HCT-116 colon = system: HCT-116 colon
SNB-19 CNS = system: SNB-19 CNS
SF-268 CNS = system: SF-268 CNS
K-562 leukemia = system: K-562 leukemia
HCC-2998 colon = system: HCC-2998 colon
MCF7 breast = system: MCF7 breast
OVCAR-8 ovarian = system: OVCAR-8 ovarian
T-47D breast = system: T-47D breast
EKVX NSCLC = system: EKVX NSCLC
PC-3 prostate = system: PC-3 prostate
COLO 205 colon = system: COLO 205 colon
NCI-H226 lung = system: NCI-H226 lung
BT-549 breast = system: BT-549 breast
NCI-H460 lung = system: NCI-H460 lung
786-0 renal = system: 786-0 renal
HOP-62 NSCLC = system: HOP-62 NSCLC
NCI-H23 lung = system: NCI-H23 lung
HL-60(TB) leukemia = system: HL-60(TB) leukemia

N=C(N)CCNC(=O)C1CCC(N)=N1 (configuration not stated)
TGI (SK-MEL-28 melanoma): > 100 µM | TGI (HOP-92 NSCLC): > 67.8 µM | TGI (SW-620 colon): > 100 µM | TGI (A549 NSCLC): > 61.2 µM | TGI (SNB-75 CNS): 60.4 µM | TGI (OVCAR-5 ovarian): > 96.6 µM | TGI (OVCAR-3 ovarian): > 41.9 µM | TGI (MDA-N): > 100 µM | TGI (U251 CNS): > 100 µM | TGI (MDA-MB-435): > 100 µM | TGI (SF-539 CNS): > 43.2 µM | TGI (OVCAR-4 ovarian): 81.3 µM | TGI (IGROV1 ovarian): > 100 µM | TGI (CCRF-CEM leukemia): > 80.5 µM | TGI (UO-31 renal): > 80.1 µM | TGI (ACHN renal): > 100 µM | TGI (HT29 colon): > 84.5 µM | TGI (UACC-257 melanoma): > 81.1 µM | TGI (DU-145 prostate): > 65.6 µM | TGI (MOLT-4 leukemia): > 78.8 µM | TGI (SR leukemia): > 100 µM | TGI (SN12C renal): 68.3 µM | TGI (HS 578T breast): 65.5 µM | TGI (M14 melanoma): 98.1 µM | TGI (HCT-15 colon): > 100 µM | TGI (LOX IMVI melanoma): > 100 µM | TGI (MDA-MB-231 breast): > 79.3 µM | TGI (RXF 393 renal): > 94.4 µM | TGI (KM12 colon): > 100 µM | TGI (SK-MEL-2 melanoma): > 78.7 µM | TGI (MALME-3M melanoma): > 61.6 µM | TGI (SK-MEL-5 melanoma): > 61.9 µM | TGI (CAKI-1 renal): > 100 µM | TGI (SK-OV-3 ovarian): > 69.3 µM | TGI (TK-10 renal): > 90.4 µM | TGI (UACC-62 melanoma): > 100 µM | TGI (NCI/ADR-RES ovarian): > 100 µM | TGI (SF-295 CNS): > 86.2 µM | TGI (NCI-H522 lung): > 92.9 µM | TGI (RPMI-8226 leukemia): > 100 µM | TGI (A498 renal): 85.9 µM | TGI (HCT-116 colon): > 91 µM | TGI (SNB-19 CNS): > 100 µM | TGI (SF-268 CNS): > 93 µM | TGI (K-562 leukemia): > 100 µM | TGI (HCC-2998 colon): > 36.2 µM | TGI (MCF7 breast): > 100 µM | TGI (OVCAR-8 ovarian): > 100 µM | TGI (T-47D breast): > 59.7 µM | TGI (EKVX NSCLC): > 89.7 µM | TGI (PC-3 prostate): > 64.6 µM | TGI (COLO 205 colon): > 59 µM | TGI (NCI-H226 lung): > 63.8 µM | TGI (BT-549 breast): > 100 µM | TGI (NCI-H460 lung): > 82.1 µM | TGI (786-0 renal): > 95.7 µM | TGI (HOP-62 NSCLC): > 48.2 µM | TGI (NCI-H23 lung): > 93.3 µM | TGI (HL-60(TB) leukemia): > 87.4 µM

CC(=O)Nc1ccc(S(=O)(=O)/N=C2\C=CC(=O)c3ccccc32)cc1
TGI (SK-MEL-28 melanoma): 24.4 µM | TGI (HOP-92 NSCLC): 21.7 µM | TGI (SW-620 colon): 47.6 µM | TGI (A549 NSCLC): 29.7 µM | TGI (SNB-75 CNS): 14.1 µM | TGI (OVCAR-5 ovarian): 20.6 µM | TGI (OVCAR-3 ovarian): 10.3 µM | TGI (MDA-N): 3.59 µM | TGI (U251 CNS): 14.2 µM | TGI (MDA-MB-435): 3.36 µM | TGI (SF-539 CNS): 15.6 µM | TGI (OVCAR-4 ovarian): 8.6 µM | TGI (IGROV1 ovarian): 10.7 µM | TGI (CCRF-CEM leukemia): 27.7 µM | TGI (UO-31 renal): 20 µM | TGI (ACHN renal): 16.4 µM | TGI (HT29 colon): 33.7 µM | TGI (UACC-257 melanoma): 12.4 µM | TGI (DU-145 prostate): > 57.2 µM | TGI (MOLT-4 leukemia): 1.25 µM | TGI (SR leukemia): 11.8 µM | TGI (SN12C renal): 11.9 µM | TGI (HS 578T breast): 26.1 µM | TGI (M14 melanoma): 11.1 µM | TGI (HCT-15 colon): 16.1 µM | TGI (LOX IMVI melanoma): 15.2 µM | TGI (MDA-MB-231 breast): 10.7 µM | TGI (RXF 393 renal): 15.6 µM | TGI (KM12 colon): 40.5 µM | TGI (SK-MEL-2 melanoma): 32.1 µM | TGI (MALME-3M melanoma): 9.66 µM | TGI (SK-MEL-5 melanoma): 8.7 µM | TGI (CAKI-1 renal): 35.7 µM | TGI (SK-OV-3 ovarian): 33.8 µM | TGI (TK-10 renal): 36.9 µM | TGI (UACC-62 melanoma): 12.2 µM | TGI (NCI/ADR-RES ovarian): 22.9 µM | TGI (SF-295 CNS): 15.1 µM | TGI (NCI-H522 lung): 29 µM | TGI (RPMI-8226 leukemia): 25.9 µM | TGI (A498 renal): 21.2 µM | TGI (HCT-116 colon): 22.8 µM | TGI (SNB-19 CNS): 28.3 µM | TGI (SF-268 CNS): 17.2 µM | TGI (K-562 leukemia): 9.13 µM | TGI (HCC-2998 colon): 10.7 µM | TGI (MCF7 breast): 12.2 µM | TGI (OVCAR-8 ovarian): 9.13 µM | TGI (T-47D breast): > 83 µM | TGI (EKVX NSCLC): 22 µM | TGI (PC-3 prostate): 15.4 µM | TGI (COLO 205 colon): 26.9 µM | TGI (NCI-H226 lung): 18.1 µM | TGI (BT-549 breast): 25.3 µM | TGI (NCI-H460 lung): 28.5 µM | TGI (786-0 renal): 26.4 µM | TGI (HOP-62 NSCLC): 22.8 µM | TGI (NCI-H23 lung): 13.3 µM | TGI (HL-60(TB) leukemia): 11.2 µM

CCCCC(=O)Nc1ccc2cc(C(=O)OC)c(Cl)nc2n1
TGI (SK-MEL-28 melanoma): > 100 µM | TGI (HOP-92 NSCLC): > 100 µM | TGI (SW-620 colon): > 100 µM | TGI (A549 NSCLC): > 100 µM | TGI (SNB-75 CNS): > 100 µM | TGI (OVCAR-5 ovarian): > 100 µM | TGI (OVCAR-3 ovarian): 17.6 µM | TGI (MDA-N): > 100 µM | TGI (U251 CNS): > 78 µM | TGI (MDA-MB-435): > 100 µM | TGI (SF-539 CNS): > 100 µM | TGI (OVCAR-4 ovarian): > 100 µM | TGI (IGROV1 ovarian): > 100 µM | TGI (CCRF-CEM leukemia): > 100 µM | TGI (UO-31 renal): 57.7 µM | TGI (ACHN renal): > 100 µM | TGI (HT29 colon): > 100 µM | TGI (UACC-257 melanoma): > 100 µM | TGI (DU-145 prostate): 10.1 µM | TGI (MOLT-4 leukemia): > 100 µM | TGI (SR leukemia): > 100 µM | TGI (SN12C renal): > 100 µM | TGI (HS 578T breast): 46.9 µM | TGI (M14 melanoma): > 100 µM | TGI (HCT-15 colon): > 100 µM | TGI (LOX IMVI melanoma): > 100 µM | TGI (MDA-MB-231 breast): > 100 µM | TGI (RXF 393 renal): > 100 µM | TGI (KM12 colon): 10.1 µM | TGI (SK-MEL-2 melanoma): > 100 µM | TGI (MALME-3M melanoma): > 100 µM | TGI (SK-MEL-5 melanoma): > 100 µM | TGI (CAKI-1 renal): > 100 µM | TGI (SK-OV-3 ovarian): > 100 µM | TGI (TK-10 renal): > 100 µM | TGI (UACC-62 melanoma): > 100 µM | TGI (NCI/ADR-RES ovarian): > 100 µM | TGI (SF-295 CNS): > 96.7 µM | TGI (NCI-H522 lung): > 100 µM | TGI (RPMI-8226 leukemia): > 100 µM | TGI (A498 renal): > 100 µM | TGI (HCT-116 colon): > 100 µM | TGI (SNB-19 CNS): 38 µM | TGI (SF-268 CNS): > 100 µM | TGI (K-562 leukemia): > 100 µM | TGI (HCC-2998 colon): 52.7 µM | TGI (MCF7 breast): > 100 µM | TGI (OVCAR-8 ovarian): > 100 µM | TGI (T-47D breast): > 72.5 µM | TGI (EKVX NSCLC): > 100 µM | TGI (PC-3 prostate): > 74.3 µM | TGI (COLO 205 colon): > 45.3 µM | TGI (NCI-H226 lung): > 100 µM | TGI (BT-549 breast): > 100 µM | TGI (NCI-H460 lung): > 100 µM | TGI (786-0 renal): > 100 µM | TGI (HOP-62 NSCLC): 20.6 µM | TGI (NCI-H23 lung): > 100 µM | TGI (HL-60(TB) leukemia): 6.81 µM
